According to PubChem BioAssay AID248 (DTP/NCI, 2004):
Where “and” joins values, the source holds several entries; their conditions need not be identical. Equal entries are not always repeated. Toxic doses and inconclusive results are not listed. Rule as the data show it: active = T/C of 150% or more; inactive = T/C below 125%.

Test system: L1210 leukemia ip in BDF1 mice, survival T/C
Assay: NCI In Vivo Anticancer Drug Screen. Data for tumor model L1210 Leukemia (intraperitoneal) in B6D2F1 (BDF1) mice
Conditions: endpoint: mean survival time, higher = longer survival
Procedure, shortened: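 In this screen, tumor-bearing mice given compound are compared to those given vehicle, and their survival values are reported as a treated-to-control quotient.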

[1] = dose: 100.0 mg/kg/injection, schedule: Q01DX001 (ip), vehicle: saline
[2] = dose: 200.0 mg/kg/injection, schedule: Q01DX001 (ip), vehicle: saline
[3] = dose: 400.0 mg/kg/injection, schedule: Q01DX001 (ip), vehicle: saline
[4] = dose: 100.0 mg/kg/injection, schedule: Q01DX009 (ip), vehicle: saline with Tween-80
[5] = dose: 100.0 mg/kg/injection, schedule: Q04DX003 (ip), vehicle: saline with Tween-80
[6] = dose: 200.0 mg/kg/injection, schedule: Q01DX009 (ip), vehicle: saline with Tween-80
[7] = dose: 200.0 mg/kg/injection, schedule: Q04DX003 (ip), vehicle: saline with Tween-80
[8] = dose: 400.0 mg/kg/injection, schedule: Q04DX003 (ip), vehicle: saline with Tween-80

Measured: T/C

CN1CCC23c4ccccc4NC1C21CCN(C)C3Nc2ccccc21
inactive: dose: 6.25 mg/kg/injection, schedule: Q01DX Z (ip), vehicle: saline 97 % of control | dose: 12.5 mg/kg/injection, schedule: Q01DX Z (ip), vehicle: saline 110 % of control | dose: 25.0 mg/kg/injection, schedule: Q01DX Z (ip), vehicle: saline 100 % of control | dose: 50.0 mg/kg/injection, schedule: Q01DX Z (ip), vehicle: saline 101 % of control | dose: 100.0 mg/kg/injection, schedule: Q01DX009 (ip), vehicle: Klucel (hydroxypropylcellulose) (HPC) 107 % of control | dose: 200.0 mg/kg/injection, schedule: Q01DX009 (ip), vehicle: Klucel (hydroxypropylcellulose) (HPC) 96 % of control

Cc1ccc(N2CCCC(=O)C(O)CCC2)cc1 (stereo not given)
inactive: [1] 98 % of control | dose: 100.0 mg/kg/injection, schedule: Q01DX009 (ip), vehicle: saline 100 % of control | [2] 90 % of control | dose: 200.0 mg/kg/injection, schedule: Q01DX009 (ip), vehicle: saline 96 % of control | dose: 300.0 mg/kg/injection, schedule: Q01DX009 (ip), vehicle: saline 116 % of control | [3] 90 % of control

COc1ccc(C(CC(=O)c2ccc3c(c2)OCO3)c2c(O)c3ccccc3oc2=O)cc1OC (stereo not given)
inactive: dose: 50.0 mg/kg/injection, schedule: Q01DX009 (ip), vehicle: saline with Tween-80 96 % of control | [4] 96 % of control | [5] 94 % of control | [6] 91 % of control | [7] 89 % of control | [8] 88 % of control

CC(CCCN(CCCl)CCCl)Nc1ccnc2cc(Cl)ccc12 (stereo not given)
inactive: dose: 5.0 mg/kg/injection, schedule: Q01DX001 (ip), vehicle: saline 119 % of control | dose: 10.0 mg/kg/injection, schedule: Q01DX001 (ip), vehicle: saline 105 % of control

CS(=O)(=O)CCN1C(=O)C2C3CCC(O3)C2C1=O (stereo not given)
inactive: dose: 100.0 mg/kg/injection, schedule: Q04DX002 (ip), vehicle: saline with Tween-80 112 % of control | dose: 200.0 mg/kg/injection, schedule: Q04DX002 (ip), vehicle: saline with Tween-80 108 % of control | dose: 400.0 mg/kg/injection, schedule: Q04DX002 (ip), vehicle: saline with Tween-80 97 % of control

O=c1[nH]cnc2c1ncn2Cc1ccc([N+](=O)[O-])cc1
inactive: dose: 100.0 mg/kg/injection, schedule: Q01DX001 (ip), vehicle: other 96 % of control | [5] 102 % of control | dose: 200.0 mg/kg/injection, schedule: Q01DX001 (ip), vehicle: other 98 % of control | [7] 96 % of control | [8] 94 % of control

CC1c2ccccc2N(S(=O)(=O)c2ccccc2)C1C (stereo not given)
inactive: dose: 100.0 mg/kg/injection, schedule: Q01DX009 (ip), vehicle: gum acacia 108 % of control | dose: 100.0 mg/kg/injection, schedule: Q04DX003 (ip), vehicle: gum acacia 96 % of control | dose: 200.0 mg/kg/injection, schedule: Q01DX009 (ip), vehicle: gum acacia 104 % of control | dose: 200.0 mg/kg/injection, schedule: Q04DX003 (ip), vehicle: gum acacia 102 % of control | dose: 400.0 mg/kg/injection, schedule: Q01DX009 (ip), vehicle: gum acacia 93 % of control | dose: 400.0 mg/kg/injection, schedule: Q04DX003 (ip), vehicle: gum acacia 96 % of control

O=[N+]([O-])c1ccc(N=Nc2ccc(O)cc2)c([N+](=O)[O-])c1
inactive: dose: 50.0 mg/kg/injection, schedule: Q01DX001 (ip), vehicle: carboxymethylcellulose (CMC) 100 % of control | dose: 100.0 mg/kg/injection, schedule: Q01DX001 (ip), vehicle: carboxymethylcellulose (CMC) 106 % of control | dose: 200.0 mg/kg/injection, schedule: Q01DX001 (ip), vehicle: carboxymethylcellulose (CMC) 105 % of control

CCCCCCCCCCCCOC(C(=O)O)(c1ccccc1)c1ccccc1
inactive: dose: 25.0 mg/kg/injection, schedule: Q04DX003 (ip), vehicle: saline with Tween-80 100 % of control | dose: 50.0 mg/kg/injection, schedule: Q04DX003 (ip), vehicle: saline with Tween-80 91 % of control | [5] 98 % of control and 89 % of control

COc1ccc(C(C#N)N(C)C)cc1OC (stereo not given)
inactive: dose: 50.0 mg/kg/injection, schedule: Q01DX001 (ip), vehicle: saline 100 % of control | [1] 100 % of control

NNC(=O)c1cnccn1
inactive: dose: 16.0 mg/kg/injection, schedule: Q01DX015 (ip), vehicle: water 102 % of control | dose: 32.0 mg/kg/injection, schedule: Q01DX015 (ip), vehicle: water 115 % of control | dose: 64.0 mg/kg/injection, schedule: Q01DX015 (ip), vehicle: water 109 % of control | dose: 80.0 mg/kg/injection, schedule: Q01DX015 (ip), vehicle: water 105 % of control | dose: 100.0 mg/kg/injection, schedule: Q01DX001 (ip), vehicle: water 96 % of control | dose: 120.0 mg/kg/injection, schedule: Q01DX015 (ip), vehicle: water 113 % of control

CC(C)(O)c1ccccc1
inactive: [1] 105 % of control | [4] 88 % of control | [5] 93 % of control | [2] 100 % of control | [6] 90 % of control | [7] 89 % of control | [3] 103 % of control | dose: 400.0 mg/kg/injection, schedule: Q01DX009 (ip), vehicle: saline with Tween-80 92 % of control | [8] 91 % of control

FC(F)(F)c1cccc(-n2nncc2-c2ccccc2)c1
inactive: dose: 100.0 mg/kg/injection, schedule: Q04DX002 (ip), vehicle: Klucel (hydroxypropylcellulose) (HPC) 97 % of control | dose: 200.0 mg/kg/injection, schedule: Q04DX002 (ip), vehicle: Klucel (hydroxypropylcellulose) (HPC) 101 % of control | dose: 400.0 mg/kg/injection, schedule: Q04DX002 (ip), vehicle: Klucel (hydroxypropylcellulose) (HPC) 97 % of control
